Our source for the IC50 values is patent publication US5698444A (Eli Lilly and Company, priority 1993, dated 1997).

The target in this test is T1, human 5-HT2B receptor (Homo sapiens, UniProt P41595).
T1 construct: expressed in transfected cells
The experiment in a line: competition assay: inhibition of binding of [3H]5-hydroxytryptamine to the cloned human 5-HT2B receptor (cell membranes).

Read-outs that look alike come from different tables or passages of the source.

T1 sequence (P41595 whole entry): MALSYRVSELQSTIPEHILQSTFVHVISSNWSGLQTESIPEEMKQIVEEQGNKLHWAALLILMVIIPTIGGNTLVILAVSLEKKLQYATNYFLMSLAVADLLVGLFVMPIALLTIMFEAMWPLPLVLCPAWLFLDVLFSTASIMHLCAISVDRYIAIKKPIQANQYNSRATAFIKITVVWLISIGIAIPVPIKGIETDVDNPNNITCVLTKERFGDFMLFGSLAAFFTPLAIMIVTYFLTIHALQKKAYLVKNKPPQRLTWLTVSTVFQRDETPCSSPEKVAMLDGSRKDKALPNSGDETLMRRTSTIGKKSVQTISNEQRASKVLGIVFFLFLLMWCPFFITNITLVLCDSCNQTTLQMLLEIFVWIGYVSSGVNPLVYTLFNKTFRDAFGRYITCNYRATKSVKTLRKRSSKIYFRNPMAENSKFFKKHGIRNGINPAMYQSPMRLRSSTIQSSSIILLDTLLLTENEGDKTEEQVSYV

With `O=C(CCCN1CCC2(CC1)C(=O)NCN2c1ccccc1)c1ccc(F)cc1` [spiperone, 8-[4-(4-fluorophenyl)4-oxobutyl]-1-phenyl-1,3,8-triazaspiro[4,5]decan-4-one], under “read-out: IC50 (concentration which displaces or inhibits the binding of 50% of the labeled 5-hydroxytryptamine)”, the IC50 was determined as 691 nM.

The compound `c1ccc2c(N3CCNCC3)cccc2c1` [1-(1-naphthyl)piperazine, 1-(1-Naphthyl)piperazine] returned an IC50 of 2.41 nM.

In turn, `CC(N)Cc1c[nH]c2ccc(O)cc12` (stereo not drawn) [α-methyl-5-hydroxytryptamine, 3-(2-aminopropyl)-1H-indol-5-ol] returned an IC50 of 11.8 nM.
